Converted amounts (≈) assume the structure as drawn. “And” between values parts separate entries of the source, which are not always exact repeats. Equal values may be shown once.
Experiments:
P388 ascitic leukemia = experiment: Effect against P388 leukemia in mice; parameters: LTS (long term survivors) / Toxic deaths (evaluated on the basis of zooptic findings): dose or concentration left out as unconfirmed; conditions: for antitumor activity (in words): P388 ascitic leukemia in mice
Protocol: The activity of the compounds 4-demethoxy-4'-epi-11-deoxydaunorubicin and 4-demethoxy-deoxy-daunorubicin was also tested against P388 ascitic leukemia in mice.

Hela cells = experiment: Effect on Hela cells cloning activity (cytotoxic activity in vitro); assay type: cell-based; conditions: treatment for 24 hours; for IC50: read-out: Effect on Hela cells cloning activity, ID50; for Effect on Hela cells cloning activity, %: 1440 min; for activity at 0.1 µg/mL: dose 100 ng/ml
Protocol: The biological activity of the following compound was tested against Hela cells in vitro: […]

[1] = Homo sapiens, HeLa, 24 h, dose 6.2 ng/ml
[2] = Homo sapiens, HeLa, 24 h, dose 25 ng/ml

| Molecule | antitumor activity (in words) (P388 ascitic leukemia) | LTS (long term survivors) (P388 ascitic leukemia; dose 4.4, ip on day 1) | Toxic deaths (evaluated on the basis of zooptic findings) (P388 ascitic leukemia; dose 4.4, ip on day 1) | LTS (long term survivors) (P388 ascitic leukemia; dose 6.6, ip on day 1) | Toxic deaths (evaluated on the basis of zooptic findings) (P388 ascitic leukemia; dose 6.6, ip on day 1) | LTS (long term survivors) (P388 ascitic leukemia; dose 10, ip on day 1) | Toxic deaths (evaluated on the basis of zooptic findings) (P388 ascitic leukemia; dose 10, ip on day 1) | IC50 (Hela cells; Homo sapiens, HeLa) [µg/mL] | Effect on Hela cells cloning activity, % (Hela cells; dose 6.2 ng/ml) | activity at 0.0062 µg/mL (Hela cells; [1]) [%] | activity at 0.025 µg/mL (Hela cells; [2]) [%] | activity at 0.1 µg/mL (Hela cells; Homo sapiens, HeLa, 24 h) [%] | further results |
| --- | --- | --- | --- | --- | --- | --- | --- | --- | --- | --- | --- | --- | --- |
| 4-demethoxy-deoxy-daunorubicin | exert antitumor activity | 0/10 | 0/10 | 0/10 | 7/10 | 0/10 | 8/10 | – | – | – | – | – | – |
| CC(=O)[C@]1(O)Cc2cc3c(c(O)c2[C@@H](O[C@H]2C[C@H](N)[C@@H](O)[C@H](C)O2)C1)C(=O)c1ccccc1C3=O [4-demethoxy-4'-epi-11-deoxydaunorubicin] | exert antitumor activity | – | – | 0/10 | 0/10 | 0/10 | 0/10 | 0.04 (≈ 0.0831 µM) | 60% and 105% | – | – | – | LTS (long term survivors) (P388 ascitic leukemia; dose 15, ip on day 1): 0/10; Toxic deaths (evaluated on the basis of zooptic findings) (P388 ascitic leukemia; dose 15, ip on day 1): 0/10; Effect on Hela cells cloning activity, % (Hela cells; dose 1.5 ng/ml): 78% and 109%; Effect on Hela cells cloning activity, % (Hela cells; dose 25 ng/ml): 56% and 82% |
| CC(=O)[C@]1(O)Cc2c(cc3c(c2O)C(=O)c2ccccc2C3=O)[C@@H](O[C@H]2C[C@H](N)[C@H](O)[C@H](C)O2)C1 [4-demethoxy-6-deoxydaunorubicin] | – | – | – | – | – | – | – | 0.017 (≈ 0.0353 µM) | – | – | – | – | activity at 0.005 µg/mL (Hela cells; Homo sapiens, HeLa, 24 h, dose 5 ng/ml): 119%; activity at 0.01 µg/mL (Hela cells; Homo sapiens, HeLa, 24 h, dose 10 ng/ml): 73%; activity at 0.05 µg/mL (Hela cells; Homo sapiens, HeLa, 24 h, dose 50 ng/ml): 4%; activity at 0.25 µg/mL (Hela cells; Homo sapiens, HeLa, 24 h, dose 250 ng/ml): 0% |
| C[C@@H]1O[C@@H](O[C@H]2C[C@](O)(C(=O)CO)Cc3cc4c(c(O)c32)C(=O)c2ccccc2C4=O)C[C@H](N)[C@H]1O [4-demethoxy-11-deoxy-4'-epidoxorubicin] | – | – | – | – | – | – | – | 0.02 (≈ 0.0402 µM) | – | 100 | 33 | 1 | activity at 0.4 µg/mL (Hela cells; Homo sapiens, HeLa, 24 h, dose 400 ng/ml): 0% |
| CC(=O)[C@]1(O)Cc2cc3c(c(O)c2[C@@H](O[C@H]2C[C@H](N)[C@H](O)[C@H](C)O2)C1)C(=O)c1ccccc1C3=O [4-demethoxy-11-deoxydaunorubicin] | – | – | – | – | – | – | – | 0.025 (≈ 0.0519 µM) | – | 112 | 50 | 0 | – |
| COc1cccc2c1C(=O)c1c(O)c3c(c(O)c1C2=O)C[C@@](O)(C(C)=O)C[C@@H]3O[C@H]1C[C@H](N)[C@H](O)[C@H](C)O1 [Daunorubicin, reference compound] | – | 0/10 | 0/10 | 0/10 | 3/10 | – | – | 0.015 (≈ 0.0284 µM) | 86% and 150% and 93% and 101% | – | – | – | LTS (long term survivors) (P388 ascitic leukemia; dose 2.9, ip on day 1): 0/10; Toxic deaths (evaluated on the basis of zooptic findings) (P388 ascitic leukemia; dose 2.9, ip on day 1): 0/10; activity at 0.0031 µg/mL (Hela cells; Homo sapiens, HeLa, 24 h, dose 3.1 ng/ml): 104%; activity at 0.0125 µg/mL (Hela cells; Homo sapiens, HeLa, 24 h, dose 12.5 ng/ml): 65%; Effect on Hela cells cloning activity, % (Hela cells; dose 3.1 ng/ml): 115%; Effect on Hela cells cloning activity, % (Hela cells; dose 12.5 ng/ml): 83% and 80% and 77% and 79% |

Source: patent US4600537A, “Preparation of (±) 4-demethoxy-6 (and-11-)-deoxydaunomycinone” (Farmitalia Carlo Erba S.p.A., priority 1981, dated 1986)
